{"source": "paper PMC3391587", "about": "(Journal of Nuclear Medicine, 2012)", "assay": "HPLC radiometabolite analysis of arterial plasma after [^18F]DPA-714 injection", "format": "in vivo", "details": "rat arterial plasma, mean ± SD"}
{"smiles": "CCN(CC)C(=O)Cc1c(-c2ccc(OCC[18F])cc2)nn2c(C)cc(C)nc12", "note": "[[^18F]DPA-714, N,N-diethyl-2-(2-(4-(2-(^18F)-fluoroethoxy)phenyl)-5,7-dimethylpyrazolo[1,5-a]pyrimidin-3-yl)acetamide]", "values": [{"measurement": "% [^18F]DPA-714 (parent) in plasma", "setting": "P.I. time 12 (min), N=7", "value": "68 ± 7.4", "unit": "%"}, {"measurement": "% [^18F]DPA-714 (parent) in plasma", "setting": "P.I. time 30 (min), N=7", "value": "44 ± 8.9", "unit": "%"}, {"measurement": "% [^18F]DPA-714 (parent) in plasma", "setting": "P.I. time 60 (min), N=7", "value": "27 ± 6.2", "unit": "%"}, {"measurement": "% [^18F]DPA-714 (parent) in plasma", "setting": "P.I. time 90 (min), N=5", "value": "22 ± 17.8", "unit": "%"}]}
